Laboratory results published in patent US9938335B2, “Glucagon and GLP-1 co-agonist compounds” (Eli Lilly and Company, priority 2015, dated 2018).
Where two headings read alike, the source gives them in different places. Marks after values point to notes of the source that are not given here. Each block holds one compound with its values, some of them ahead of it. Starred links: 1 amine or outer side, 2 acyl side, 3 side chain; linkers in the order of their positions; H or OH if unused. Non-standard residues stand in square brackets, D forms with d. Residues, ends and D or L forms follow the SMILES beside them. Groups on a side chain read outwards from the residue. *: point of attachment. C18 diacid = O=C(O)CCCCCCCCCCCCCCCCC(=O)*; γGlu = O=C(O)[C@H](CCC(=O)[*:2])N[*:1]; AEEA = NCCOCCOCC(=O)O; Aib = CC(C)(N)C(=O)O

Experiments:
rat GLP-1-R = target: T1, rat GLP-1-R (Rattus norvegicus, UniProt P32301); experiment: Functional activation of the rat GLP-1-R in insulinoma cell line INS1 832-3 (cAMP); format: cell-based
T1 construct: stimulating cAMP production at the endogenous GLP-1 receptors; endogenous in cells; host or cells: INS1 832-3 rat insulinoma cells
T1 sequence (P32301 22-463): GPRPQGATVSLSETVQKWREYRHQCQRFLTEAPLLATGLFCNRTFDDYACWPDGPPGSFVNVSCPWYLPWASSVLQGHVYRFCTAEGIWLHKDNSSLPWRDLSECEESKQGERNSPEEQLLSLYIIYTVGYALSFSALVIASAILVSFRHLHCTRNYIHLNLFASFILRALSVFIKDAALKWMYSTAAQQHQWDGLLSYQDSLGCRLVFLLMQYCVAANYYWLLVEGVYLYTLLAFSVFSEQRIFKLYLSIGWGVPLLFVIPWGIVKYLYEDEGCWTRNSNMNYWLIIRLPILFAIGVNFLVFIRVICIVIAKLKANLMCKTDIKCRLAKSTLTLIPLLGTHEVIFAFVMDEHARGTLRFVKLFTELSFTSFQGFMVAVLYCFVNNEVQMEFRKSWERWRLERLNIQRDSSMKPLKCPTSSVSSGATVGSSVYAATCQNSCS
Protocol: Performance of the assay requires detachment of the cells from culture flasks using Enzyme Free Cell Stripper and pelleted by centrifugation at 1000 rpm for 5 minutes at room temperature. […] After 2 hours starvation, cells are treated with compound by adding 10 μl of 5× compound dilutions into the cell plates (n=2) and incubated in a 37° C., 5% CO2 incubator for 30 minutes.
cAMP concentration is measured using a HTRF cAMP assay kit (Cisbio): cAMP-d2 conjugate in cell lysis buffer (20 μl) followed by the antibody anti-cAMP-Eu^3+-Cryptate, also in cell lysis buffer (20 μl), is added to the cells of the plate.
The assay is performed with duplicated plates.

DIO mice (C57BL/6) [1] = experiment: Effects on energy expenditure in DIO mice (indirect calorimetry); format: in vivo, mouse; conditions: for Cumulative Heat (Kcal/kg lean mass/3 day): test article 15 nmol/kg, semaglutide 60 nmol/kg sc every three days
Protocol: Seven to eight months old male DIO mice (C57BL/6) weighing 45-50 g are used in this study to assess the effect of compounds of the present invention on energy metabolism. Animals are individually housed in a temperature-controlled (24° C.) facility with a 12 hour light/dark cycle (lights on 22:00), and free access to food (TD95217)(Teklad) and water. After 2 weeks acclimation to the facility, mice are randomized to treatment groups (N=6/group) based on body weight so each group has similar starting mean body weight. Animals are placed in a PhenoMaster/LabMaster calorimeter (TSE Systems, Chesterfield, Mo.) for 8 days of acclimation.
Heat and […] (RER) are measured by indirect calorimetry as described using an open-circuit calorimetry system. RER is the ratio of the volume of CO2 produced (VCO2) to the volume of O2 consumed (VO2). Heat is calculated with lean body weight considered. The energy expenditure is kcal/kg/3 day and expressed as mean±SEM of 6 mice per group. Statistical significance is assessed by two-way ANOVA followed by Tukey's multiple comparison test.

hGcg-R = hGcg-R (Homo sapiens, UniProt P47871); experiment: Functional activation of hGcg-R in primary human hepatocytes (cAMP); format: cell-based; set-up: stimulating cAMP production at the endogenous Gcg receptors; endogenous in cells; host or cells: cryopreserved primary human hepatocytes
Protocol: Primary human hepatocytes are used to determine functional activity of compounds on stimulating cAMP production at the endogenous Gcg receptors. Vials of human primary hepatocytes are frozen in a liquid nitrogen tank. Upon removal, vials are thawed immediately in a water bath having a temperature of 37° C. Cell suspension is then transferred to 50 ml CHRM (Gibco/Life Technologies cat#CM7000 Cryopreserved Hepatocyte Recovery Medium).
The cell suspension is centrifuged at 1,000×g for 10 min. Cell pellets are resuspended in 5 ml of Plating Media after removing the CHRM by aspiration. The Plating Media is prepared by adding entire contents of CM3000 Supplement Packs to 500 ml Williams Media (Gibco/Life Technologies), followed by sterile filtration through a 0.22 μm membrane.
The cell density is counted on hemocytometer, by adding 100 μl of cell suspension to 100 μl Trypan Blue (HyClone Trypan Blue 0.04%, catalog number SV30084.01). The cell suspension is further diluted in the Plating Media to the final cell density of 0.8×10^6 cells per ml. […] 65 ml of the cell suspension is then added to each well of the Collagen coated 96-well plate to final cell density 50,000 cells per well. The cell plate is incubated in a 37° C., 5% CO2 incubator for 3-4 hours.
After 3-4 hours incubation, the media is aspirated and replaced with 100 ml Maintenance Media. The maintenance media is prepared by adding entire contents of CM4000 Supplement Packs to 500 ml Williams Media (Gibco/Life Technologies), followed by sterile filtration through a 0.22 μm membrane. The cell plate is returned to the 37° C., 5% CO2 incubator overnight in preparation for the cAMP assay.
The cell plate is removed from the incubator and the media is removed by gentle aspiration without disturbing the cell monolayer.
cAMP concentration is measured using a HTRF cAMP assay kit (Cisbio): cAMP-d2 conjugate in cell lysis buffer (40 μl) followed by the antibody anti-cAMP-Eu^3+-Cryptate, also in cell lysis buffer (40 μl), is added to the cells of the plate.

Human Gcg-R = target: T2, Human Gcg-R (Homo sapiens, UniProt P47871); experiment: Functional hGcg-R assay (cAMP HTRF, HEK-293 clonal cell line); format: cell-based; conditions: for Emax: HEK293; for EC50: cAMP, 60 minute incubation, 0.25% FBS, 0.05% BSA, geometric mean, read-out: Human Gcg-R EC50, nM ± SEM, (n)
T2 construct: expressed in transfected cells; host or cells: HEK-293 clonal cell line over-expressing the receptor
Protocol: After a 60 minute incubation at room temperature, the resulting increase in intracellular cAMP (adenosine 3′,5′-cyclic monophosphate) is quantitatively determined using the CisBio cAMP Dynamic 2 HTRF Assay Kit (62AM4PEJ). cAMP levels within the cell are detected by adding the cAMP-d2 conjugate in cell lysis buffer (20 μl) followed by the antibody anti-cAMP-Eu^3+-Cryptate, also in cell lysis buffer (20 μl).
A relative EC50 value and percent top (Emax) are derived by non-linear regression analysis using the percent maximal response vs. the concentration of peptide added, fitted to a four-parameter logistic equation (Genedata Screener®).
Means for EC50 are expressed as Geometric means±standard error of the mean (SEM) with the number of replicates (n) indicated in parenthesis. Means for Emax are expressed as the arithmetic mean±standard error. ND signifies that agonist activity was not detected.

[2] = Pharmacokinetics in cynomolgus monkeys; format: in vivo; conditions: Table 8: single SC 50 nmol/kg; for Cmax: read-out: Cmax
Protocol: The compounds are administered by a single intravenous or subcutaneous dose of 50 nmole/kg or 250 nmole/kg.
The plasma concentrations of compounds are determined by a LC/MS method. Briefly, a compound of the present invention is extracted from 100% monkey plasma (25 μl) using acetonitrile. Two distinct layers are formed upon centrifugation with the compound located in the liquid layer. An 80 μl aliquot of the supernatant was transferred to a 96-well plate, diluted with 150 μl of water and 25 μl of formic acid. The diluted sample (10 μl) was injected onto a Supelco Analytical Discovery BIO Wide Pore C5-3, 5 cm×1 mm, 3 um column. The column effluent is directed into a Thermo Q-Exactive mass spectrometer for detection and quantitation.

DIO mice (C57BL/6) [3] = experiment: Glycemic control in DIO mice; format: in vivo, mouse; conditions: for 44 hours Glucose AUC (% of Vehicle): OGTT 44 hours post-injection; for 44 hours Glucose AUC (% of Vehicle) / 78 hours Glucose AUC (% of Vehicle): 25 nmol/kg sc; for 78 hours Glucose AUC (% of Vehicle): OGTT 78 hours post-injection; for glucose excursions post an oral glucose challenge: OGTTs at 44 and 78 hours post injection, 25 nmol/kg; for Blood glucose (mg/dL) post-injection, Mean: male DIO mice, 25 nmol/kg sc once
Protocol: Five to six months old male DIO mice (C57BL/6) from Taconic Biosciences are used in this study. Animals are individually housed in a temperature-controlled (24° C.) facility with a 12 hour light/dark cycle (lights on 6:00), and free access to food and water. After two weeks acclimation to the facility, the mice are randomized to treatment groups (n=7/group) based on their body weight and blood glucose. Mice are injected subcutaneously once with vehicle or compounds (25 nmol/kg). Blood glucose is monitored 2 and 8 hours post-injection and then once a day at 08:00 for 4 days. OGTTs are performed at 44 and 78 hours post the peptide injection. Statistics are analyzed using ANOVA with Dunnett's comparison by JMP 6. Significance is denoted at p≤0.05 vs vehicle.

[4] = male, cynomolgus monkey, plasma, sc, 50 nmol/kg, individual animals
[5] = male, cynomolgus monkey, plasma, sc, 50 nmol/kg, mean

T2 sequence (P47871 26-477): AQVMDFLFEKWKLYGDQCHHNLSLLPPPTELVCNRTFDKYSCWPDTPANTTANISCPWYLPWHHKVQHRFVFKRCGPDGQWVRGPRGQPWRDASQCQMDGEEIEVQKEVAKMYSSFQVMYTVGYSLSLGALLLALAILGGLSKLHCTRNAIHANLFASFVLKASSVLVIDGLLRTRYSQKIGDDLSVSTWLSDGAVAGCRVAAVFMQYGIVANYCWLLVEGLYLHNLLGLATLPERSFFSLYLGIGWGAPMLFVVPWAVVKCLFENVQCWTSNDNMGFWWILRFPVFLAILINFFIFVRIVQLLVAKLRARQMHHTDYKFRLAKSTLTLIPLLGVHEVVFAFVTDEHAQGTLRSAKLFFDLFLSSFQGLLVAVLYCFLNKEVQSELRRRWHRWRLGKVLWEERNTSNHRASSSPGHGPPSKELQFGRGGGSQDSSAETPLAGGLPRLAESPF
Chain of hGcg-R (P47871 26-477): as above

EC50 (rat GLP-1-R; INS1 832-3 cells, cAMP, 30 minutes): 26.1 nM | Emax (rat GLP-1-R; INS1, percent of maximal response with native GLP-1 peptide at 300 nM): 112% | Emax (hGcg-R; percent of maximal response with a Gcg analog conjugated to a saturated C18 fatty acid (diacid)): 100% | EC50 (hGcg-R; primary human hepatocytes, cAMP, 1 hour): 99.9 nM | Emax (Human Gcg-R): 112 ± 3% | EC50 (Human Gcg-R): 7.21 ± 1.06 nM | AUC(0-inf) ([2]; individual animals): 21.672 µM·h | CL/F ([2]; individual animals): 2.31 mL/h/kg | Cmax ([2]; individual animals): 253 nM | T1/2 ([2]; male cynomolgus monkeys, individual animals): 47 h | Tmax [2, 4]: 12 h | AUC(0-inf) ([2]; male, cynomolgus monkey, plasma, sc, 50 nmol/kg, individual animals, read-out: AUC0-inf): 24.9 µM·h | CL/F ([2]; male, cynomolgus monkey, plasma, sc, 50 nmol/kg, individual animals, read-out: CL/F (converted)): 2.01 mL/h/kg | Cmax [2, 4]: 236 nM | half-life ([2]; male, cynomolgus monkey, plasma, sc, 50 nmol/kg, male cynomolgus monkeys, individual animals): 67 h | Tmax [2, 5]: ~12 h | half-life [2, 5]: 57 h | AUC(0-inf) ([2]; male, cynomolgus monkey, plasma, sc, 50 nmol/kg, mean, read-out: AUC0-inf): 23.3 µM·h | CL/F ([2]; male, cynomolgus monkey, plasma, sc, 50 nmol/kg, mean, read-out: CL/F (converted)): 2.16 mL/h/kg | Cmax [2, 5]: 244 nM
SMILES: CC(C)C[C@H](NC(=O)[C@H](CC(C)C)NC(=O)[C@H](Cc1c[nH]c2ccccc12)NC(=O)[C@H](CCC(=O)O)NC(=O)[C@@H](NC(=O)[C@H](Cc1ccccc1)NC(=O)[C@H](CCC(=O)O)NC(=O)[C@H](CCCCNC(=O)COCCOCCNC(=O)COCCOCCNC(=O)CC[C@H](NC(=O)CCCCCCCCCCCCCCCCC(=O)O)C(=O)O)NC(=O)[C@H](C)NC(=O)[C@H](CCCCN)NC(=O)[C@H](CCCCN)NC(=O)[C@H](CCC(=O)O)NC(=O)[C@H](CC(=O)O)NC(=O)[C@H](CC(C)C)NC(=O)[C@H](Cc1ccc(O)cc1)NC(=O)[C@H](CCCCN)NC(=O)[C@H](CO)NC(=O)[C@H](Cc1ccc(O)cc1)NC(=O)[C@H](CC(=O)O)NC(=O)[C@H](CO)NC(=O)[C@@H](NC(=O)[C@H](Cc1ccccc1)NC(=O)[C@@H](NC(=O)CNC(=O)[C@H](CCC(N)=O)NC(=O)C(C)(C)NC(=O)[C@@H](N)Cc1c[nH]cn1)[C@@H](C)O)[C@@H](C)O)C(C)C)C(=O)N[C@@H](CCC(=O)O)C(=O)NCC(=O)NCC(=O)N1CCC[C@H]1C(=O)N[C@@H](CO)C(=O)N[C@@H](CO)C(=O)NCC(N)=O [Compound 1]
cAMP production (rat GLP-1-R; INS1 832-3 cells, data not shown): increased cAMP production in a dose-dependent manner | metabolic rate (DIO mice (C57BL/6) [1]; DIO mice, chronic treatment): increased their metabolic rate starting from Week 2 | Cumulative Heat (Kcal/kg lean mass/3 day) (DIO mice (C57BL/6) [1]; Day 1 to Day 4): 1749 ± 136 Kcal/kg lean mass/3 day | Cumulative Heat (Kcal/kg lean mass/3 day) (DIO mice (C57BL/6) [1]; Day 4 to Day 7): 1822 ± 173 Kcal/kg lean mass/3 day | Cumulative Heat (Kcal/kg lean mass/3 day) (DIO mice (C57BL/6) [1]; Day 7 to Day 10): 2349 ± 129 Kcal/kg lean mass/3 day | Cumulative Heat (Kcal/kg lean mass/3 day) (DIO mice (C57BL/6) [1]; Day 10 to Day 13): 2351 ± 144 Kcal/kg lean mass/3 day | cAMP production (hGcg-R; primary human hepatocytes, data not shown): increased cAMP production in a dose-dependent manner | 44 hours Glucose AUC (% of Vehicle) (DIO mice (C57BL/6) [3]): 42* % of Vehicle | 78 hours Glucose AUC (% of Vehicle) (DIO mice (C57BL/6) [3]): 90 % of Vehicle | glucose excursions post an oral glucose challenge (DIO mice (C57BL/6) [3]): lower glucose excursions post an oral glucose challenge at 44 hour | Blood glucose (mg/dL) post-injection, Mean (DIO mice (C57BL/6) [3]; 2 hours post-injection): 168.5 mg/dL | Blood glucose (mg/dL) post-injection, Mean (DIO mice (C57BL/6) [3]; 8 hours post-injection): 79.4 mg/dL | Blood glucose (mg/dL) post-injection, Mean (DIO mice (C57BL/6) [3]; 24 hours post-injection): 90.6 mg/dL | Blood glucose (mg/dL) post-injection, Mean (DIO mice (C57BL/6) [3]; 48 hours post-injection): 101.9 mg/dL | Blood glucose (mg/dL) post-injection, Mean (DIO mice (C57BL/6) [3]; 72 hours post-injection): 113.4 mg/dL | Blood glucose (mg/dL) post-injection, Mean (DIO mice (C57BL/6) [3]; 96 hours post-injection): 150.0 mg/dL

Emax (Human Gcg-R): 104 ± 5% | EC50 (Human Gcg-R): 15.3 ± 2.2 nM
SMILES: CC(C)C[C@H](NC(=O)[C@H](CC(C)C)NC(=O)[C@H](Cc1c[nH]c2ccccc12)NC(=O)[C@H](CCC(=O)O)NC(=O)[C@@H](NC(=O)[C@H](Cc1ccccc1)NC(=O)[C@H](CCC(=O)O)NC(=O)[C@H](CCCCNC(=O)COCCOCCNC(=O)COCCOCCNC(=O)CC[C@H](NC(=O)CC[C@H](NC(=O)CCCCCCCCCCCCCCCCC(=O)O)C(=O)O)C(=O)O)NC(=O)[C@H](C)NC(=O)[C@H](CCCCN)NC(=O)[C@H](CCCCN)NC(=O)[C@H](CCC(=O)O)NC(=O)[C@H](CC(=O)O)NC(=O)[C@H](CC(C)C)NC(=O)[C@H](Cc1ccc(O)cc1)NC(=O)[C@H](CCCCN)NC(=O)[C@H](CO)NC(=O)[C@H](Cc1ccc(O)cc1)NC(=O)[C@H](CC(=O)O)NC(=O)[C@H](CO)NC(=O)[C@@H](NC(=O)[C@H](Cc1ccccc1)NC(=O)[C@@H](NC(=O)CNC(=O)[C@H](CCC(N)=O)NC(=O)C(C)(C)NC(=O)[C@@H](N)Cc1c[nH]cn1)[C@@H](C)O)[C@@H](C)O)C(C)C)C(=O)N[C@@H](CO)C(=O)NCC(=O)NCC(=O)N1CCC[C@H]1C(=O)N[C@@H](CO)C(=O)N[C@@H](CO)C(=O)NCC(N)=O [Compound 3] (H-H[Aib]QGTFTSDYSKYLDEKKAK([AEEA-AEEA-γGlu-γGlu-C18 diacid])EFVEWLLSGGPSSG-NH2; N-terminus assumed)
44 hours Glucose AUC (% of Vehicle) (DIO mice (C57BL/6) [3]): 35* % of Vehicle | 78 hours Glucose AUC (% of Vehicle) (DIO mice (C57BL/6) [3]): 76* % of Vehicle | glucose excursions post an oral glucose challenge (DIO mice (C57BL/6) [3]): lower glucose excursions post an oral glucose challenge at 44 hour | Blood glucose (mg/dL) post-injection, Mean (DIO mice (C57BL/6) [3]; 2 hours post-injection): 173.4 mg/dL | Blood glucose (mg/dL) post-injection, Mean (DIO mice (C57BL/6) [3]; 8 hours post-injection): 81.4 mg/dL | Blood glucose (mg/dL) post-injection, Mean (DIO mice (C57BL/6) [3]; 24 hours post-injection): 96.6 mg/dL | Blood glucose (mg/dL) post-injection, Mean (DIO mice (C57BL/6) [3]; 48 hours post-injection): 95.8 mg/dL | Blood glucose (mg/dL) post-injection, Mean (DIO mice (C57BL/6) [3]; 72 hours post-injection): 104.7 mg/dL | Blood glucose (mg/dL) post-injection, Mean (DIO mice (C57BL/6) [3]; 96 hours post-injection): 141.1 mg/dL
